Consider two compounds from patent US20040014797A1, “Pharmaceutical composition comprising metformin and a 5-phenoxyalkyl-2,4-thiazolidinedione-type derivative” (priority 2000, published 2004).

Each structure is given as a SMILES string.

This series has as its system nOSTZ rat. In words: Antidiabetic effect of the metformin and CRE16336 combination on the nOSTZ rat (glycaemia, insulinaemia, lacticaemia after 4 days of oral treatment). To be noted: for Glucose / Insulin / Lactate: 4 days of oral treatment, blood from the tail 2 h after last administration, metformin 25 mg/kg and/or CRE16336 12.5 mg/kg; for Effect on the hyperglycaemia in the nOSTZ rats (in words): 4 days oral, metformin 25 mg/kg, CRE16336 12.5 mg/kg, alone or combined. In kind it is in vivo. The protocol:
The antidiabetic effect of the metformin and CRE16336 combination was studied on the nOSTZ rat, an experimental model of non-insulin-dependent diabetes. This model is produced by intravenous injection of Streptozotocin (STZ) 100 mg/kg, on the day of birth. 38 male nOSTZ rats were used after selection based on the hyperglycaemia value after fasting for 2 h in order to homogenize the groups. […] a group treated with metformin at 25 mg/kg a group treated with CRE16336 at 12.5 mg/kg a group treated with metformin 25 mg/kg and CRE16336 12.5 mg/kg 5 male Wistar rats were incorporated into this study in order to evaluate the degree of hyperglycaemia in the diabetic animals. The products were administered orally in the morning between 8 am and 9 am, for 4 days.

Take `N#Cc1ccc(OCCC2SC(=O)NC2=O)cc1` (centres unmarked) [CRE16336, 5-[2-(4-cyanophenoxy)ethyl]thiazolidine-2,4-dione]: the Glucose stood at 156 ± 6 mg/dL, the Insulin is recorded as 45.2 ± 5.5 μU/ml, the Lactate is 13.2 ± 0.7 mg/dL and the “Effect on the hyperglycaemia in the nOSTZ rats (in words)” value is reported as “does not modify the hyperglycaemia”.
Consider `CN(C)C(=N)NC(=N)N` [Metformin, 1,1-dimethylbiguanide], for which the Glucose is 160 ± 5 mg/dL, the Insulin is given as 34.1 ± 3.7 μU/ml, the Lactate amounted to 15.4 ± 1.4 mg/dL and the “Effect on the hyperglycaemia in the nOSTZ rats (in words)” value is “does not modify the hyperglycaemia”.
